16 compounds from patent US20230382863A1, “MEK INHIBITORS AND USES THEREOF” (Ikena Oncology, Inc., priority 2022, published 2023) can be followed below.

Where two headings read alike, the source gives them in different places. Bounds are passed on as bounds.

One data set deals with uMEK/BRAF (Homo sapiens (Human), UniProt Q02750). Put plainly: MEK-RAF Binding Assay (uMEK/BRAF HTRF).
In the next data set the test system is pERK HCT-116 (G13D). Put plainly: pERK HCT-116 (G13D) ICW (4 hour). It is filed as cell-based.
For data set [1], the system named is Phosphorylation of ERK1/2 in AsPC1 cells. As to the kind of experiment: 4 hour pERK1/2 HTRF Assay. Type of data set: cell-based. As to conditions: Homo sapiens, ASPC1, read-out: pERK AsPC-1 HTRF (4 hour): Average IC50 (nM); AsPC-1, 4 hour. As for the experimental part: AsPC1 cells were seeded at 20,000 cells/well overnight in 96-well plates, then treated with a 12-point dose response of compounds (Starting dose of 3000 nM and 3-fold dilution) for 4 hours. AsPC1 cells are a K-Ras mutant cell line. Phosphorylation of ERK1/2 on residues Thr202 and Tyr204 were detected using a Homogenous Time-Resolved Fluorescence (HTRF) assay (Cisbio Cat #64ERKPEG). Briefly, ERK phosphorylation was detected using a sandwich assay format using two phospho-ERK specific antibodies, one labelled with EU^3+-Cryptate (donor) and the second with d2 (acceptor). The Fluorescence Resonance Energy Transfer (FRET) towards the d2 acceptor was detected at a wavelength of 665 nm. ERK1/2 phosphorylation levels were normalized to total ERK1/2 protein levels in each well. IC50 values were determined by fitting a variable slope, four parameters curve to the compound concentration to normalized Phospho-ERK1/2 relationship.

Data set [2] can be described thus: Cassette pharmacokinetics studies in mice. It is filed as in vivo. As to conditions: male, Balb/c, plasma; Mouse, PO, 5 mg/kg. As to the method: Pharmacokinetics studies were conducted using cassette dosing protocols, with test compounds administered per mouse. Treatment groups were 3 mice (˜6-8 weeks old, ˜20-30 g Balb/c male mice) per route of administration. Compounds were formulated in 5% DMSO and 95% PEG400 with final concentrations of 0.5 mg/mL for IV and PO dosing. Compounds were dosed at 2 mg/kg for IV dosing and 5 mg/kg for PO dosing. Blood samples were withdrawn at 0.083, 0.25, 0.5, 1.0, 2.0, 4.0, 6.0, 8.0, and 24 hours following IV dosing, and 0.25, 0.5, 1.0, 2.0, 4.0, 6.0, 8.0, and 24 hours following PO dosing. Blood samples were centrifuged at 4,000 g for 5 minutes at 4° C. to obtain plasma samples. Plasma samples were diluted with acetonitrile containing internal standard, vortexed for 30 seconds, then centrifuged at 4,000 rpm for 15 minutes at 4° C. The supernatant was diluted with water, and compound concentration was determined by HPLC/MS/MS compared to calibration standards of 0.5-1,000 ng/mL.
Where route is listed as “IV*”, the compound was dosed IV at 1 mg/kg.

Where [3] appears, read: Homo sapiens, read-out: pERK HCT-116 (G13D) ICW (4 hour): Average IC50 (nM).
[4] abbreviates: read-out: pERK HCT-116 (G13D) ICW (4 hour): Average IC50.

Turning to `CNS(=O)(=O)Nc1cc(OC)cc(Oc2c(C(=O)NC3CC3)c(Nc3ccc(I)cc3F)n(C)c(=O)c2C)c1` [Compound I-25], the 50% inhibitory concentration (IC50) was in the range of 1 to 10 µM at uMEK/BRAF and 1000 to 10000 nM in the data set with pERK HCT-116 (G13D) (setting [3]).
The corresponding values for `CNS(=O)(=O)Nc1cc(Oc2c(C(=O)NC3CC3)c(Nc3ccc(I)cc3F)n(C)c(=O)c2C)ccc1OC` [Compound I-18] are 0.1 to 1 µM and 1000 to 10000 nM.
Take `CNS(=O)(=O)Nc1c(F)ccc(Oc2c(C(=O)NC3CC3)c(Nc3ccc(I)cc3F)n(C)c(=O)c2C)c1Cl` [Compound I-38]: the 50% inhibitory concentration (IC50) in data set [1] is less than 100 nM; on uMEK/BRAF, less than 0.1 µM.
Take `CNS(=O)(=O)Nc1ccc(F)c(Oc2c(C(=O)NC3CC3)c(Nc3ccc(I)cc3F)n(C)c(=O)c2C)c1` [Compound I-17]: the IC50 fell in the range of 0.1 to 1 µM on uMEK/BRAF and 100 to 1000 nM in the data set on pERK HCT-116 (G13D) (setting [3]).
Take `Cc1c(Oc2cccc(N)c2Cl)c(C(=O)NC2CC2)c(Nc2ccc(I)cc2F)n(C)c1=O` [Compound I-86]: the values for the IC50 (in data set [1]; at uMEK/BRAF) were less than 100 nM and less than 0.1 µM, respectively.
For the compound “N-cyclopropyl-2-[(2-fluoro-4-iodophenyl)amino]-4-(3-methanesulfonoimidamidophenoxy)-1,5-dimethyl-6-oxopyridine-3-carboxamide [Compound I-20]”, the results for the half-maximal inhibitory concentration (IC50) on uMEK/BRAF and in the data set with pERK HCT-116 (G13D) (setting [4]) were 0.1 to 1 µM and 100 to 1000 nM, respectively.
The corresponding values for `CNS(=O)(=O)Cc1cccc(Oc2c(C(=O)NC3CC3)c(Nc3ccc(I)cc3F)n(C)c(=O)c2C)c1` [Compound I-23, N-cyclopropyl-2-((2-fluoro-4-iodophenyl)amino)-1,5-dimethyl-4-(3-((N-methylsulfamoyl)methyl)phenoxy)-6-oxo-1,6-dihydropyridine-3-carboxamide] are 0.1 to 1 µM and 1000 to 10000 nM.
With `CNS(=O)(=O)Nc1cc(Oc2c(C(=O)NC3CC3)c(Nc3ccc(I)cc3F)n(C)c(=O)c2C)ccc1C` [Compound I-22], the results for the IC50 at uMEK/BRAF and in the data set on pERK HCT-116 (G13D) (setting [3]) were 0.1 to 1 µM and 1000 to 10000 nM, respectively.
In the same order, the values of `Cc1c(Oc2cccc(CS(=O)(=O)N(C)C)c2)c(C(=O)NC2CC2)c(Nc2ccc(I)cc2F)n(C)c1=O` [Compound I-11] are less than 0.1 µM and 100 to 1000 nM.
The corresponding values for `Cc1c(Oc2ccc3c(c2)CNS(=O)(=O)N3C)c(C(=O)NC2CC2)c(Nc2ccc(I)cc2F)n(C)c1=O` [Compound I-61] are 0.1 to 1 µM and 100 to 1000 nM.
In the same order, the values of `Cc1c(Oc2cccc(N=S(C)(N)=O)c2)c(C(=O)NC2CC2)c(Nc2ccc(I)cc2F)n(C)c1=O` (stereo in doubt) [Compound I-8, (R)-4-(3-((amino(methyl)oxo-lambda6-sulfaneylidene)amino)phenoxy)-N-cyclopropyl-2-((2-fluoro-4-iodophenyl)amino)-1,5-dimethyl-6-oxo-1,6-dihydropyridine-3-carboxamide] are less than 0.1 µM and less than 100 nM.
For the compound `Cc1c(Oc2ccc3c(c2)CNS(=O)(=O)N3)c(C(=O)NC2CC2)c(Nc2ccc(I)cc2F)n(C)c1=O` [Compound I-59], the concentration for half-maximal inhibition (IC50) on uMEK/BRAF lay within 0.1 to 1 µM; in the data set on pERK HCT-116 (G13D) (setting [3]), 100 to 1000 nM.
In the same order, the values of `Cc1c(Oc2ccc3c(c2)CN(C)S(=O)(=O)N3)c(C(=O)NC2CC2)c(Nc2ccc(I)cc2F)n(C)c1=O` [Compound I-60] are 0.1 to 1 µM and less than 100 nM.
As for `CNS(=O)(=O)n1ccc2ccc(Oc3c(C(=O)NC4CC4)c(Nc4ccc(I)cc4F)n(C)c(=O)c3C)cc21` [Compound I-78], the IC50 in data set [1] lay within 1000 to 10000 nM; at uMEK/BRAF, 0.1 to 1 µM.
`CNS(=O)(=O)Nc1ccc(Oc2c(C(=O)NC3CC3)c(Nc3ccc(I)cc3F)n(C)c(=O)c2C)cc1` [Compound I-64]: the IC50 in data set [1] lay in the range of 100 to 1000 nM. Further, in data set [2], the total exposure AUC(0-inf) turned out to be 505 ng·h/mL, the AUC(0-t) turned out to be 492 ng·h/mL, the peak level (Cmax) was 231 ng/mL and the Tmax is 0.8 h. Besides, the half-life in data set [2] was 2.1 h. On uMEK/BRAF, this compound returned an IC50 of 0.1 to 1 µM.
Consider `CNS(=O)(=O)Nc1cccc(Oc2c(C(=O)NCC3CC3)c(Nc3ccc(I)cc3F)n(C)c(=O)c2C)c1Cl` [Compound I-39], for which the IC50 in data set [1] was less than 100 nM; at uMEK/BRAF, less than 0.1 µM.
